Laboratory results as given in PMC5206489 (Journal of chemical information and modeling, 2016).

Experiments:
BG505 SOSIP.664 = assay: Competition ELISA, BG505 SOSIP.664 binding to CD4IgG2; parameters: species or system HIV-1; conditions: full dose response not achieved owing to solubility limits
HIV-1YU2 = conditions: read-out: IC50 (HIV-1YU2); viral infectivity, HIV-1YU2 strain; cited from earlier work
core monomeric gp120 = conditions: binding affinity on gp120 core monomer; cited from earlier work

For `CC1(C)CC(NC(=O)C(=O)Nc2ccc(Cl)cc2)CC(C)(C)N1` [compound 1], the “inhibition of SOSIP trimer protein binding to sCD4 (in words)” value (BG505 SOSIP.664) is listed as “weaker inhibition”, the IC50 (HIV-1YU2) is listed as > 100 µM and the Kd (core monomeric gp120) is listed as 3.7 µM.
For `CN(Cc1ccc2c(c1)C[C@H](CN=C(N)N)[C@H]2NC(=O)C(=O)Nc1ccc(Cl)c(F)c1)C(=N)N` [compound 5], the IC50 (HIV-1YU2) is given as 0.8 ± 0.1 µM and the Kd (core monomeric gp120) is given as 0.1 µM.
